Laboratory results reported in patent publication US20240101531A1, “PYRIDINAMINE DERIVATIVES AND THEIR USE AS POTASSIUM CHANNEL MODULATORS” (Xenon Pharmaceuticals Inc., priority 2022, published 2024).
Structures can show the parent of a compound that is named as a salt.

Target: human KV7.2/KV7.3 (Homo sapiens (Human), UniProt O43525+O43526)
Test: Potassium flux assay (IPG-2 AM dye)
Format: cell-based
Conditions: TREX HEK 293 or HEK 293 cells expressing human KV7.2/KV7.3; arithmetic mean values
Procedure, shortened: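 EC50 from 16 concentrations (2-fold dilutions, top 30 μM), scaled between DMSO baseline and a known KV7.x modulator maximum. Signal is IPG-2 AM fluorescence (ex 530/em 558 nm) after 10 mM KCl challenge buffer addition, following 20 min room-temperature compound exposure of HEK 293 or TREX HEK 293 cells stably expressing human KV7.2/KV7.3.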

Compound | EC50 [µM]
Cc1cc2ccccc2c(Nc2ccc(Cl)nc2)n1 [Example 398, N-(6-chloropyridin-3-yl)-3-methylisoquinolin-1-amine] | ≥ 30
O=C(Nc1ccc2c(Nc3ccc(Cl)nc3)nccc2c1)C1(CO)CC1 [Example 401, N-(1-((6-chloropyridin-3-yl)amino)isoquinolin-6-yl)-1-(hydroxymethyl)cyclopropane-1-carboxamide] | ≥ 30
Clc1ccc(Nc2ncc(NCc3ccccc3)c3cc[nH]c23)cn1 [Example 403, N^4-benzyl-N^7-(6-chloropyridin-3-yl)-1H-pyrrolo[2,3-c]pyridine-4,7-diamine] | 10 to 30
F[C@H]1C[C@H](Oc2ccc3c(Nc4ccc(Cl)nc4)nccc3c2)C1 [Example 408, N-(6-chloropyridin-3-yl)-6-((1r,3r)-3-fluorocyclobutoxy)isoquinolin-1-amine] | 1 to 10
COc1ccc2c(Nc3ccc(Cl)nc3)ncc(OC)c2c1 [Example 410, N-(6-chloropyridin-3-yl)-4,6-dimethoxyisoquinolin-1-amine] | 10 to 30
Clc1ccc(Nc2nccc3cc(OC4CCC4)ccc23)cn1 [Example 411, N-(6-chloropyridin-3-yl)-6-cyclobutoxyisoquinolin-1-amine] | 1 to 10
FC1(F)CC(Oc2ccc3c(Nc4ccc(Cl)nc4)nccc3c2)C1 [Example 412, N-(6-chloropyridin-3-yl)-6-(3,3-difluorocyclobutoxy)isoquinolin-1-amine] | 1 to 10
COCCNC(=O)c1ccc2c(Nc3ccc(Cl)nc3)nccc2c1 [Example 418] | 10 to 30
O=C(NCC1CC1)c1ccc2c(Nc3ccc(Cl)nc3)nccc2c1 [Example 419, 1-((6-chloropyridin-3-yl)amino)-N-(cyclopropylmethyl)isoquinoline-6-carboxamide] | 10 to 30
CC1(C)CCC(COc2ccc3c(Nc4cnc(Cl)nc4)nccc3c2)O1 (centres unmarked) [Example 420] | 1 to 10
Clc1ccc(Nc2nccc3cc(N4CCCC4)ccc23)cn1 [Example 421, N-(6-chloropyridin-3-yl)-6-(pyrrolidin-1-yl)isoquinolin-1-amine] | 1 to 10
Cn1nccc1-c1ccc2c(Nc3ccc(Cl)nc3)nccc2c1 [Example 422, N-(6-chloropyridin-3-yl)-6-(1-methyl-1H-pyrazol-5-yl)isoquinolin-1-amine] | 1 to 10
Clc1ccc(Nc2nccc3cc(-c4cncnc4)ccc23)cn1 [Example 423, N-(6-chloropyridin-3-yl)-6-(pyrimidin-5-yl)isoquinolin-1-amine] | 10 to 30
Clc1ccc(Nc2nccc3cc(-c4cc[nH]n4)ccc23)cn1 [Example 424, N-(6-chloropyridin-3-yl)-6-(1H-pyrazol-3-yl)isoquinolin-1-amine] | 1 to 10
Clc1ccc(Nc2nccc3cc(Cn4nccn4)ccc23)cn1 [Example 425, 6-((2H-1,2,3-triazol-2-yl)methyl)-N-(6-chloropyridin-3-yl)isoquinolin-1-amine] | 1 to 10
Clc1ccc(Nc2nccc3cc(Cc4ccccn4)ccc23)cn1 [Example 426, N-(6-chloropyridin-3-yl)-6-(pyridin-2-ylmethyl)isoquinolin-1-amine] | 1 to 10
N^8-(6-chloropyridin-3-yl)-N^3-((1-methyl-1H-pyrazol-4-yl)methyl)-1,7-naphthyridine-3,8-diamine [Example 251] | 1 to 10

The next lines start with the values.

EC50 [µM] | Compound
1 to 10 | OC1(COc2ccc3c(Nc4ccc(Cl)nc4)nccc3c2)COC1 [Example 394, 3-(((1-((6-chloropyridin-3-yl)amino)isoquinolin-6-yl)oxy)methyl)oxetan-3-ol]
1 to 10 | Cc1ncc(Nc2nccc3cc(OCc4cn[nH]c4)ccc23)cn1 [Example 395, 6-((1H-pyrazol-4-yl)methoxy)-N-(2-methylpyrimidin-5-yl)isoquinolin-1-amine]
< 1 | Cc1ncc(Nc2nccc3cc(OCc4c[nH]nc4C)ccc23)cn1 [Example 396, 6-((3-methyl-1H-pyrazol-4-yl)methoxy)-N-(2-methylpyrimidin-5-yl)isoquinolin-1-amine]
< 1 | Cn1cc(F)c(COc2ccc3c(Nc4ccc(Cl)nc4)nccc3c2)n1 [Example 397, N-(6-chloropyridin-3-yl)-6-((4-fluoro-1-methyl-1H-pyrazol-3-yl)methoxy)isoquinolin-1-amine formate]
1 to 10 | COc1cnc2c(Nc3ccc(Cl)nc3)nccc2c1 [Example 399, N-(6-chloropyridin-3-yl)-3-methoxy-1,7-naphthyridin-8-amine]
< 1 | N#CCn1cc(COc2ccc3c(Nc4ccc(Cl)nc4)nccc3c2)cn1 [Example 400, 2-(4-(((1-((6-chloropyridin-3-yl)amino)isoquinolin-6-yl)oxy)methyl)-1H-pyrazol-1-yl)acetonitrile]
1 to 10 | FC(F)(F)CNc1cnc(Nc2ccc(Cl)nc2)c2[nH]ccc12 [Example 402, NF-(6-chloropyridin-3-yl)-N^4-(2,2,2-trifluoroethyl)-1H-pyrrolo[2,3-c]pyridine-4,7-diamine]
< 1 | FC1(F)CC1COc1ccc2c(Nc3ccc(Cl)nc3)nccc2c1 (centres unmarked) [Example 404, N-(6-chloropyridin-3-yl)-6-((2,2-difluorocyclopropyl)methoxy)isoquinolin-1-amine]
1 to 10 | CC1(C)CC[C@@H](COc2ccc3c(Nc4ccc(Cl)nc4)nccc3c2)O1 [Example 405, (S)-N-(6-chloropyridin-3-yl)-6-((5,5-dimethyltetrahydrofuran-2-yl)methoxy)isoquinolin-1-amine]
< 1 | CC1(COc2ccc3c(Nc4ccc(Cl)nc4)nccc3c2)CCCO1 (centres unmarked) [Example 406, N-(6-chloropyridin-3-yl)-6-((2-methyltetrahydrofuran-2-yl)methoxy)isoquinolin-1-amine]
1 to 10 | FC1(F)CC(COc2ccc3c(Nc4ccc(Cl)nc4)nccc3c2)C1 [Example 407, N-(6-chloropyridin-3-yl)-6-((3,3-difluorocyclobutyl)methoxy)isoquinolin-1-amine]
1 to 10 | FC(F)C(F)(F)COc1ccc2c(Nc3ccc(Cl)nc3)nccc2c1 [Example 409, N-(6-chloropyridin-3-yl)-6-(2,2,3,3-tetrafluoropropoxy)isoquinolin-1-amine]
1 to 10 | F[C@@H]1C[C@H]1COc1ccc2c(Nc3ccc(Cl)nc3)nccc2c1 [Example 413, N-(6-chloropyridin-3-yl)-6-(((1S,2R)-2-fluorocyclopropyl)methoxy)isoquinolin-1-amine]
1 to 10 | F[C@H]1C[C@H]1COc1ccc2c(Nc3ccc(Cl)nc3)nccc2c1 [Example 414, N-(6-chloropyridin-3-yl)-6-(((1S,2S)-2-fluorocyclopropyl)methoxy)isoquinolin-1-amine]
< 1 | Clc1ccc(Nc2nccc3cc(OCC4CCOC4)ccc23)cn1 (centres unmarked) [Example 415, N-(6-chloropyridin-3-yl)-6-((tetrahydrofuran-3-yl)methoxy)isoquinolin-1-amine]
1 to 10 | CC1(C)CC[C@H](COc2ccc3c(Nc4ccc(Cl)nc4)nccc3c2)O1 [Example 416, (R)-N-(6-chloropyridin-3-yl)-6-((5,5-dimethyltetrahydrofuran-2-yl)methoxy)isoquinolin-1-amine]
1 to 10 | FC(F)COc1ccc2c(Nc3ccc(Cl)nc3)nccc2c1 [Example 417, N-(6-chloropyridin-3-yl)-6-(2,2-difluoroethoxy)isoquinolin-1-amine]
< 1 | Cc1ccc(Nc2nccc3cc(OCc4c[nH]nc4C)ccc23)cn1 [Example 427, 6-((3-methyl-1H-pyrazol-4-yl)methoxy)-N-(6-methylpyridin-3-yl)isoquinolin-1-amine formate]
